From patent US20220287998A1, “USE OF C3aR IN PREPARING DRUG FOR PREVENTING OR TREATING POLYCYSTIC KIDNEY DISEASE” (Shanghai Changzheng Hospital, priority 2021, published 2022)

Tests used:
[1] = test system: ADPKD-related pathway protein; assay: Western blot of ADPKD-related signaling pathway proteins in kidney tissue; assay type: in vivo, mice
From the text: In order to further explore the therapeutic mechanism of SB290157 on polycystic kidney mice, the expression of ADPKD-related pathway protein was detected by Western blot.

Pkd1 knockout mice = assay: Effect of C3aR inhibitor SB290157 on cyst indexes and kidney function of Pkd1 knockout mice; assay type: in vivo
From the text: Experimental animals: the animals used in this experiment were PKD1^flox/flox-Tamoxifen-Cre mice, gifted by professor Wüthrich RP, University of Zurich, Switzerland, and were bred in Specific Pathogen Free (SPF) Laboratory Animal Center of Naval Medical University [License No: SYXK (Shanghai): 2017-0004].
The blood creatinine, urea nitrogen, kidney/body weight, and cyst index of each group of mice were compared.
The main reagents used were a C3aR inhibitor (Calbiochem, SB290157, Germany), Creatinine Assay Kit (Nanjing Jiancheng Bioengineering Institute), Urea Nitrogen Assay Kit (Nanjing Institute of Built Bioengineering), and dimethyl sulfoxide (DMSO) (Amresco, 1963C070, USA).
Serum creatinine (μmol/L)=[(Sample A2-K*Sample A1)−(Blank A2-K*Blank A1)]/[(Standard A2-K*Standard A1)−(Blank A2-K*Blank A1)]*Standard Concentration; Formula:
Urea nitrogen (mmol/L)=(Assay OD−Blank OD)/(Standard OD−blank OD)*Standard Concentration (10 mmol/L)*Dilution multiple;
After HE staining, scanning was performed with a whole slide image scanner, and pictures were exported and saved using CaseViewer software. The total pixel value of the whole kidney in Photoshop software was calculated as A1, a cyst area was selected and calculated the total pixel value as A2, wherein the ratio of A2 to A1 is the cyst index.

[2] = test system: Pkd1 conditional knockout mice; assay: F4/80 immunofluorescence staining, macrophage infiltration in kidney tissue of Pkd1 conditional knockout mice; assay type: in vivo; conditions: 1 mg/kg i.p. once a day; treatment group versus model control group
From the text: F4/80 in the kidney tissues of the wild group, the model control group and the SB290157 treatment group were stained by immunofluorescence to compare the macrophage infiltration.

[3] = test system: mouse cyst epithelial cells; assay: Ki67 immunohistochemical staining of kidney slices, proliferation of cyst epithelial cells; assay type: in vivo, mice; conditions: treatment group versus model control group
Procedure: In order to explore whether the proliferation of mouse cyst epithelial cells was restricted after treatment, immunohistochemical staining for Ki67 was performed on kidney slices of each group of mice, wherein Ki67 was a nuclear protein that could reflect the cell proliferation level.

Pkd1 knockout mouse = assay: Apoptosis of cyst cells in Pkd1 knockout mouse; assay type: in vivo
[4] = test system: Han:sPRD rats and PKD1 knockout mice; conditions: cited from earlier work
RAW264.7 cells [5] = assay: C3a stimulation of macrophages, RT-PCR of iNOS, TNF-α and IL-6 mRNA; assay type: cell-based, Murine; conditions: 24 hours
Procedure: (§1) The C3aR expression on the cell surface affected the sensitivity of downstream signals induced by C3a, so C3a-C3aR should act mainly on M1-type macrophages, which was consistent with the downstream pro-inflammatory effect. To verify the effect of C3a stimulation on the expression of M1-type macrophage inflammatory factor, RAW264.7 cells were divided into 5 groups: (1) a control group: without any stimulation; (2) a LPS group: stimulated with 100 ng/ml LPS; (3) a LPS+C3a group: stimulated with 100 ng/ml LPS+100 ng/ml C3a; (4) a IL-4 group: stimulated with 20 ng/ml IL-4; (5) a IL-4+C3a group: stimulated with 20 ng/ml IL-4+100 ng/ml C3a. After 24 hours, cell RNA was extracted, and RT-PCR was used for detecting iNOS, TNF-α and IL-6 mRNA level in each group of cells, wherein the primer sequence used by RT-PCR was as follows: iNOS primer sequence Mouse F: 5′-[…]-3′ (SEQ ID NO:9), Mouse R: 5′-[…]-3′ (SEQ ID NO:10), IL-6 primer sequence Mouse F: 5′-[…]-3′ (SEQ ID NO:11), Mouse R: 5′-[…]-3′ (SEQ ID NO:12), TNF-α primer sequence Mouse F: 5′-GGCATGGATCTCAAAGACA-3′ (SEQ ID NO:13), Mouse R: 5′-TGGGCTCATACCAGGGTT-3′ (SEQ ID NO:14).

RAW264.7 cells [6] = assay: TNF-α level in macrophage culture supernatants by Elisa; assay type: cell-based, Murine; conditions: culture supernatant, after C3a stimulation
Procedure: as §1
The TNF-α level in the culture supernatants of macrophages from different treatment groups were detected by Elisa. […]

RAW264.7 cells [7] = assay: C3a stimulation of macrophages, Western blot of p-Akt, p-ERK, p-P65, p-STAT1 and TNF-α; assay type: cell-based, Murine; conditions: 24 hours
Procedure: In order to explore the mechanism of pro-inflammatory effects of C3a-C3aR on M1-type macrophages, RAW264.7 cells were divided into 4 groups with LPS as a stimulation factor and C3a as an intervention factor: (1) a control group (without any stimulation); (2) a C3a (100 ng/ml) stimulation group; (3) a LPS (100 ng/ml) stimulation group; (4) a C3a (100 ng/ml)+LPS (100 ng/ml) stimulation group. After 24 hours, cell proteins in each group were extracted, and Western blot was used for detecting the expression of p-Akt, p-ERK, p-P65, p-STAT1 and TNF-α. […] Akt and ERK may regulate the apoptosis and proliferation of M1-type macrophages, while NF-κB and STAT1 was an important signaling pathway for polarization and related inflammation of M1-type macrophage. Therefore, it is speculated that C3a-C3aR may promote the activation of Akt, ERK, STAT1 and NF-κB pathway in M1-type macrophages, and then promote the secretion of TNF-α inflammatory factors by M1-type macrophages.

[8] = treatment group compared to model control group
[9] = treatment group compared with model control group
[10] = M1-type macrophages (100 ng/ml LPS) + 100 ng/ml C3a
[11] = M1-type macrophages, C3a 100 ng/ml + LPS 100 ng/ml

Compound: N=C(N)NCCCC(NC(=O)COCC(c1ccccc1)c1ccccc1)C(=O)O (stereo not drawn) [SB290157]
- C3aR level [1]: reduced
- expression of p-Akt protein [1, 8]: down-regulated
- expression of p-ERK protein [1, 8]: down-regulated
- expression of p-P65 protein [1, 8]: down-regulated
- double kidney weight/body weight ratio (2KW/BW) (Pkd1 knockout mice; Pkd1 knockout mice, 1 mg/kg i.p. once a day, day 28, model control 0.112±0.006, wild 0.012±0.000): 0.043±0.007
- blood urea nitrogen (Pkd1 knockout mice; Pkd1 knockout mice, 1 mg/kg i.p. once a day, day 28, model control 80.4±6.0, wild 6.8±0.7): 26.3 ± 6.5 mmol/L
- serum creatinine (Pkd1 knockout mice; Pkd1 knockout mice, 1 mg/kg i.p. once a day, day 28, model control 90.0±3.6, wild 13.0±1.2 μmol/L): 29.3±3.4 μm
- cyst index (Pkd1 knockout mice; Pkd1 knockout mice, 1 mg/kg intraperitoneal once a day from postnatal day 12, sacrificed day 28, model control 49.9±1.9%): 35.3±1.9%
- cyst area (HE staining) (Pkd1 knockout mice; [9]): reduction
- kidney volume (Pkd1 knockout mice; [9]): reduced
- positive rate of F4/80 in the kidney tissue (macrophage infiltration) [2]: significantly lower
- number of kidney Ki67 positive staining cells [3]: significantly lower
- apoptosis (Pkd1 knockout mouse): increasing

Compound: [Cl][Co][Cl] [cobalt chloride]
- growth of kidney cysts [4]: inhibit
- infiltration of kidney interstitial macrophages [4]: significantly reduce
- kidney function [4]: improve

Compound: O=C(/C=C/c1ccc(O)c(O)c1)O[C@H](Cc1ccc(O)c(O)c1)C(=O)O [rosmarinic acid]
- growth of kidney cysts [4]: inhibit
- infiltration of kidney interstitial macrophages [4]: significantly reduce
- kidney function [4]: improve

Compound: C3a: produced by activation of complement C3; promotes inflammatory cell infiltration; used at 100 ng/ml to stimulate macrophages
- pro-inflammatory effect on M2-type macrophages (RAW264.7 cells [5]; 20 ng/ml IL-4 + 100 ng/ml C3a): no significant pro-inflammatory effect
- IL-6 mRNA level (RAW264.7 cells [5]; [10]): remarkably up-regulated
- TNF-alpha mRNA level (RAW264.7 cells [5]; [10]): remarkably up-regulated
- iNOS mRNA level (RAW264.7 cells [5]; M1-type macrophages (100 ng/ml LPS) + 100 ng/ml C3a, versus LPS group): up-regulated
- TNF-α level secreted by M1-type macrophages (RAW264.7 cells [6]): further increased
- stimulatory effect on M0-type macrophages (p-Akt, p-ERK, p-P65, p-STAT1, TNF-α) (RAW264.7 cells [7]; C3a 100 ng/ml alone): not significant
- expression of TNF-α protein (RAW264.7 cells [7]; [11]): further up-regulated
- expression of p-Akt protein (RAW264.7 cells [7]; [11]): further up-regulated
- expression of p-ERK protein (RAW264.7 cells [7]; [11]): further up-regulated
- expression of p-P65 protein (RAW264.7 cells [7]; [11]): further up-regulated
- expression of p-STAT1 protein (RAW264.7 cells [7]; [11]): further up-regulated
